# From ChEMBL document CHEMBL1743201, “Casarett and Doull's Toxicology The Basic Science of Poisons, 7th edition” (2008)
# Key:
# [1] = molecular target: T1, Nuclear receptor subfamily 1 group I member 3 (Homo sapiens, UniProt Q14994); test: Constitutive androstane receptor inverse agonist
# T1 sequence (Q14994 whole entry): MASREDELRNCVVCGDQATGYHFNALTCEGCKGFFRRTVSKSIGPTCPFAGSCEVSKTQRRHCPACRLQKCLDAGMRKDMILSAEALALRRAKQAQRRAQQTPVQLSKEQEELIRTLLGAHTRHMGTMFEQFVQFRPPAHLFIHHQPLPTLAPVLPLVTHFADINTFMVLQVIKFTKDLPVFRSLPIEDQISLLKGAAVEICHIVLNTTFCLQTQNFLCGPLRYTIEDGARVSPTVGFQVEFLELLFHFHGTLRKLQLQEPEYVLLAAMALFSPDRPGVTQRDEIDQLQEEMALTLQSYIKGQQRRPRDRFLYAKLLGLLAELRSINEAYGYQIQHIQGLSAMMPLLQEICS
# [2] = molecular target: T2, Nuclear receptor subfamily 1 group I member 3 (Mus musculus, UniProt O35627); test: Constitutive androstane receptor agonist
# T2 sequence (O35627 whole entry): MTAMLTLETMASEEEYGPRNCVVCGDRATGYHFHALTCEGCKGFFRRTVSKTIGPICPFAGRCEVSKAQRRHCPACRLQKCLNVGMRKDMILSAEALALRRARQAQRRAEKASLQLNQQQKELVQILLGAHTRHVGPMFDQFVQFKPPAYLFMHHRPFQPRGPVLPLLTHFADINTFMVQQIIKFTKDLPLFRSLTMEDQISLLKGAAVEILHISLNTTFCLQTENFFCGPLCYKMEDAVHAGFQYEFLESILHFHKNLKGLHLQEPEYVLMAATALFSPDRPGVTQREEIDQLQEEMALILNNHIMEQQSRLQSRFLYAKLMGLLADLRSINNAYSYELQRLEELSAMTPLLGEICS
# [3] = molecular target: T3, Microsomal glutathione S-transferase 1 (Homo sapiens, UniProt P10620); test: Substrates for human microsomal glutathione transferase MGST1; format: ADME
# T3 sequence (P10620 whole entry): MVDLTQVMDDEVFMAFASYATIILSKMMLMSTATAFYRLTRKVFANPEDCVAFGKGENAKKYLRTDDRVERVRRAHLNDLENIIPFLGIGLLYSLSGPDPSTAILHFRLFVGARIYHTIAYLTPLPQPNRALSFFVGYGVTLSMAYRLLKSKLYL
# [4] = molecular target: Microsomal glutathione S-transferase 2 (Homo sapiens, UniProt Q99735); test: Substrates for human microsomal glutathione transferase MGST2; format: ADME
# Sequence of Microsomal glutathione S-transferase 2 (Q99735 whole entry): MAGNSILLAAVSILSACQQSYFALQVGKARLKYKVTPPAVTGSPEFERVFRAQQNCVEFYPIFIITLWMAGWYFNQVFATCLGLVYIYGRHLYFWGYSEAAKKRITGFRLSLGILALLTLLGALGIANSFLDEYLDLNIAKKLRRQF
# [5] = molecular target: Glutathione S-transferase Mu 3 (Homo sapiens, UniProt P21266); test: Substrates for human cytosolic glutathione transferase GSTM3; format: ADME
# Sequence of Glutathione S-transferase Mu 3 (P21266 whole entry): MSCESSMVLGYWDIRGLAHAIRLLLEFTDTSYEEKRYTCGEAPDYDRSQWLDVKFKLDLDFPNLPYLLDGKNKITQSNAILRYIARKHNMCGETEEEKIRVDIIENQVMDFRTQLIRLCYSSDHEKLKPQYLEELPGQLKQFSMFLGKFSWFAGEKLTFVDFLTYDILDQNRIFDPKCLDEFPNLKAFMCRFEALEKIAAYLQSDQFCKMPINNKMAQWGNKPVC
# [6] = molecular target: T4, Glutathione S-transferase theta-1 (Homo sapiens, UniProt P30711); test: Substrates for human cytosolic glutathione transferase GSTT1; format: ADME
# T4 sequence (P30711 whole entry): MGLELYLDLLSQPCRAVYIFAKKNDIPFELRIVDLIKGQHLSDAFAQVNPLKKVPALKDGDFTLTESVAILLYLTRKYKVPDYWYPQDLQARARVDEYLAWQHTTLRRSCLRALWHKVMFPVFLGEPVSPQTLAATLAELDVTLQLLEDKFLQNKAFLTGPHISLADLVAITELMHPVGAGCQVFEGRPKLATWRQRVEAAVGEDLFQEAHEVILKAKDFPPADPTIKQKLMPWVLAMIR
# Sulfotransferase 4A1 = molecular target: T5, Sulfotransferase 4A1 (Homo sapiens, UniProt Q9BR01); test: Major substrate of human cytosolic sulfotransferase SULT4A1_v1; format: ADME
# T5 sequence (Q9BR01 whole entry): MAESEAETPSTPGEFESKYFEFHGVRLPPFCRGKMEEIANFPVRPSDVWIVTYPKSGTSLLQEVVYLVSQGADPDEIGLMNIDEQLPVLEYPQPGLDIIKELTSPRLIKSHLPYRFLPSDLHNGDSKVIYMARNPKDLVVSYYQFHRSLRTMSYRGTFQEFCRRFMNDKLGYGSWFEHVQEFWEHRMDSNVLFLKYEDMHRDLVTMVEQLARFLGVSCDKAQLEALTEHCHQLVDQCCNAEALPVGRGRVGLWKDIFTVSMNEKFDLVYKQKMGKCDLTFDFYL
# Sulfotransferase 1A1 = Sulfotransferase 1A1 (Homo sapiens, UniProt P50225); test: Major substrate of human cytosolic sulfotransferase SULT1A1; format: ADME
# Sequence of Sulfotransferase 1A1 (P50225 whole entry): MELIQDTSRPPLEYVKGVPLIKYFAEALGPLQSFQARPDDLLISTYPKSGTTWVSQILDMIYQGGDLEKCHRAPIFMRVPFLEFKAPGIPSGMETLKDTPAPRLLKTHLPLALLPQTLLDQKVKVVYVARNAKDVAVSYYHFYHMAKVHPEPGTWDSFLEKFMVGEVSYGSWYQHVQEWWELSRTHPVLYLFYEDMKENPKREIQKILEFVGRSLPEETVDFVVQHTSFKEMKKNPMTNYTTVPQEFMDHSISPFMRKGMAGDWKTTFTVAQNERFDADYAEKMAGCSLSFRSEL
# Sulfotransferase 1A2 = Sulfotransferase 1A2 (Homo sapiens, UniProt P50226); test: Major substrate of human cytosolic sulfotransferase SULT1A2; format: ADME
# Sequence of Sulfotransferase 1A2 (P50226 whole entry, canonical isoform): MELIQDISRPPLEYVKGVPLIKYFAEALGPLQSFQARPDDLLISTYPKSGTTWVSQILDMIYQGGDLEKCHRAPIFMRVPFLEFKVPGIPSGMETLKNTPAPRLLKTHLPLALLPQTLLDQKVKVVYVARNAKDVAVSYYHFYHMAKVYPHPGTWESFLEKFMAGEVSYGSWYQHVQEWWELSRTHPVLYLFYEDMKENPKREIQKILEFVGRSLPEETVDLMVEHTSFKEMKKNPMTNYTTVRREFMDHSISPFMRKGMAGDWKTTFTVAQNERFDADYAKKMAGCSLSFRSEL
# Cytochrome P450 2E1 = Cytochrome P450 2E1 (Homo sapiens, UniProt P05181); test: Clinically relevant substrates of human liver microsomal P450 enzymes, isoform CYP2E1; format: ADME; conditions: microsomes
# Sequence of Cytochrome P450 2E1 (P05181 whole entry, canonical isoform): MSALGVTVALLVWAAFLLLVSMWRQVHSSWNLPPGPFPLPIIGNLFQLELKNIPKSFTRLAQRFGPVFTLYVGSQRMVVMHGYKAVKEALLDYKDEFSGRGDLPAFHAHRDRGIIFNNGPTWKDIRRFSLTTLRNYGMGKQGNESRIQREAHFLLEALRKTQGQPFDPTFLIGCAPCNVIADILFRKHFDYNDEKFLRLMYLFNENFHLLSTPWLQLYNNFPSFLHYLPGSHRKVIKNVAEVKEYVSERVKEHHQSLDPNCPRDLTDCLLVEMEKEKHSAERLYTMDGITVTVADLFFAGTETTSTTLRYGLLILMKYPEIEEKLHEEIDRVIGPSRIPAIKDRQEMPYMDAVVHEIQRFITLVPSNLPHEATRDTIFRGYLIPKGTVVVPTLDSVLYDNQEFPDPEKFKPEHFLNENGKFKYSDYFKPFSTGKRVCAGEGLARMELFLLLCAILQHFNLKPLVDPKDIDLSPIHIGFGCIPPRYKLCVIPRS
# [7] = molecular target: T1, Nuclear receptor subfamily 1 group I member 3; test: (§1) Constitutive androstane receptor indirect activator; format: ADME
# [8] = molecular target: T2, Nuclear receptor subfamily 1 group I member 3; test: as §1; format: ADME
# Cytochrome P450 2C9 = Cytochrome P450 2C9 (Homo sapiens, UniProt P11712); test: Clinically relevant substrates of human liver microsomal P450 enzymes, isoform CYP2C9; format: ADME; conditions: microsomes
# Sequence of Cytochrome P450 2C9 (P11712 whole entry, canonical isoform): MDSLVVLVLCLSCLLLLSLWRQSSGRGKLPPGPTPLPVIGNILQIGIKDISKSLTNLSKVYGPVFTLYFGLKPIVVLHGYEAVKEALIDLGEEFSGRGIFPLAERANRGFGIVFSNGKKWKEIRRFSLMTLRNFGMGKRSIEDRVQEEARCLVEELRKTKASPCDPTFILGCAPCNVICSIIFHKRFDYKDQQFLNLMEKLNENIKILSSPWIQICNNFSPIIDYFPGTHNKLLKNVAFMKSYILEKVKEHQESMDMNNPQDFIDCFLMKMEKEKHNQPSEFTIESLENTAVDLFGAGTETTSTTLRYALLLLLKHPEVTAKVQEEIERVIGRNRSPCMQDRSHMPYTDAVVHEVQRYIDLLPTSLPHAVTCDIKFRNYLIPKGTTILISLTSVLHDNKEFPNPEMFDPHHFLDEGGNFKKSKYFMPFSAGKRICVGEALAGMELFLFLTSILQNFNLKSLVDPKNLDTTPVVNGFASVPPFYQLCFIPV
# Cytochrome P450 2B6 = molecular target: T6, Cytochrome P450 2B6 (Homo sapiens, UniProt P20813); test: Clinically relevant inducers of human liver microsomal P450 enzymes, isoform CYP2B6; format: ADME; conditions: microsomes
# T6 sequence (P20813 whole entry): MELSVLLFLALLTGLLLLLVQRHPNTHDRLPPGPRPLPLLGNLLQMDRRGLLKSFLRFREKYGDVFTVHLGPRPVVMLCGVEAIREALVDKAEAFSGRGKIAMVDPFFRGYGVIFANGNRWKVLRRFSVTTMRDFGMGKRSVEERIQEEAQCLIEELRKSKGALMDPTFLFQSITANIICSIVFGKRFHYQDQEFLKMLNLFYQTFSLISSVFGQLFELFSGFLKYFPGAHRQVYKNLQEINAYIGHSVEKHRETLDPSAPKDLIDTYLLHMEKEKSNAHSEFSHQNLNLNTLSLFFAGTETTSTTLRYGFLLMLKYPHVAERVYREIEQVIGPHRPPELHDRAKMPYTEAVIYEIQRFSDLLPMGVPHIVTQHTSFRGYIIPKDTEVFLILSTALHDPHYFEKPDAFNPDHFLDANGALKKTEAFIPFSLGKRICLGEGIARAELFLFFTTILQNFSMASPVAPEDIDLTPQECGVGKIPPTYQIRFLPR
# [9] = molecular target: T7, Glutathione S-transferase A1 (Homo sapiens, UniProt P08263); test: Substrates for human cytosolic glutathione transferase GSTA1; format: ADME
# T7 sequence (P08263 whole entry): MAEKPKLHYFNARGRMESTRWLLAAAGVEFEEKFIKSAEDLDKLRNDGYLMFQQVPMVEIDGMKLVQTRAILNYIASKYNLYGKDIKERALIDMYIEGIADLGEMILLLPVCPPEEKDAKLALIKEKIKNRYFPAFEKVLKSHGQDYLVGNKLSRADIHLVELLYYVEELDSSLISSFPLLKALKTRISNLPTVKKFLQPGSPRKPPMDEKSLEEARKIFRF
# [10] = molecular target: T8, Glutathione S-transferase A2 (Homo sapiens, UniProt P09210); test: Substrates for human cytosolic glutathione transferase GSTA2; format: ADME
# T8 sequence (P09210 whole entry): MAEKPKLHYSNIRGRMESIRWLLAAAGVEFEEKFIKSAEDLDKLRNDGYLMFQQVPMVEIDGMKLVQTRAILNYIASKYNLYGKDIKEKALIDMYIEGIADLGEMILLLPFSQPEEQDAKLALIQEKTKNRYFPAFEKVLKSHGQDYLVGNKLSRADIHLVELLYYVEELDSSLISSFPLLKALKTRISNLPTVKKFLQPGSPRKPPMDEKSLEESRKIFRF
# [11] = molecular target: Glutathione S-transferase A3 (Homo sapiens, UniProt Q16772); test: Substrates for human cytosolic glutathione transferase GSTA3; format: ADME
# Sequence of Glutathione S-transferase A3 (Q16772 whole entry, canonical isoform): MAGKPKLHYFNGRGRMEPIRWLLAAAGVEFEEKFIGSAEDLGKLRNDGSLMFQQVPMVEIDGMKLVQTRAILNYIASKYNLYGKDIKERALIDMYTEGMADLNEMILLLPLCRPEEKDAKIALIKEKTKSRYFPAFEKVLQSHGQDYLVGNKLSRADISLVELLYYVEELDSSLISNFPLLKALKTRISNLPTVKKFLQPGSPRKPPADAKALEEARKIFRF
# Cytochrome P450 2A6 = molecular target: T9, Cytochrome P450 2A6 (Homo sapiens, UniProt P11509); test: Clinically relevant inhibitors of human liver microsomal P450 enzymes, isoform CYP2A6; format: ADME; conditions: microsomes
# T9 sequence (P11509 whole entry): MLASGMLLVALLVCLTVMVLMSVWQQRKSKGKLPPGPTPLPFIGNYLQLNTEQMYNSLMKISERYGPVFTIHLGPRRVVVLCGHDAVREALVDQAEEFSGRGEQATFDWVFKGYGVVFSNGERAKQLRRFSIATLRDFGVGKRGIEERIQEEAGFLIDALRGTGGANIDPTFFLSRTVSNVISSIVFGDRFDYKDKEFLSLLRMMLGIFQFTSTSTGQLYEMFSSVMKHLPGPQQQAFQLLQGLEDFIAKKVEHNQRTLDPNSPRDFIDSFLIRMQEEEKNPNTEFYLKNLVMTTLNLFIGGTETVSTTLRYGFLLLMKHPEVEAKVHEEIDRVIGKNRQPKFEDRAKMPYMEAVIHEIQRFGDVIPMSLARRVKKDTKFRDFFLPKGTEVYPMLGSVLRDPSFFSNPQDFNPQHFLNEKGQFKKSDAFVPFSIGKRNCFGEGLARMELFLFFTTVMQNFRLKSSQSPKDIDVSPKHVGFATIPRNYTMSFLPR
# [12] = molecular target: T10, Glutathione S-transferase kappa 1 (Homo sapiens, UniProt Q9Y2Q3); test: Substrates for human mitochondrial glutathione transferase GSTK1; format: ADME
# T10 sequence (Q9Y2Q3 whole entry): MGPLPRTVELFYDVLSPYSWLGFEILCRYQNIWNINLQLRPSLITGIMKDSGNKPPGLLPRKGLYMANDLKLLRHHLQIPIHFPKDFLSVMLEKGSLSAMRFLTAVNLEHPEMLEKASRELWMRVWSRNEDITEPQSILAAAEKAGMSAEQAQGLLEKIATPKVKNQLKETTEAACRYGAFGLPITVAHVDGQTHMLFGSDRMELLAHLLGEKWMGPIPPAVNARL
# [13] = molecular target: Glutathione S-transferase theta-2 (Homo sapiens, UniProt P0CG29); test: Substrates for human cytosolic glutathione transferase GSTT2; format: ADME
# Sequence of Glutathione S-transferase theta-2 (P0CG29 whole entry): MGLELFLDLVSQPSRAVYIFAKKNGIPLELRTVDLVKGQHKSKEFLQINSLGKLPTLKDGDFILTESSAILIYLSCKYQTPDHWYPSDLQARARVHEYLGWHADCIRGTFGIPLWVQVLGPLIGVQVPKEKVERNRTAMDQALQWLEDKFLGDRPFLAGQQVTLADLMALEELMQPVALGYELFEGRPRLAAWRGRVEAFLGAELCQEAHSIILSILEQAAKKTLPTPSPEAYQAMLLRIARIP
compound,measurement,setting,value
Cc1cccc(CN2CCN(C(c3ccccc3)c3ccc(Cl)cc3)CC2)c1 (configuration not stated) [MECLIZINE],Activity,[1],inverse agonist
same,Activity,[2],agonist
ClC(Cl)=C(Cl)C(Cl)=C(Cl)Cl [HEXACHLOROBUTADIENE],Activity,[3],Substrate
CCCCC/C=C\C/C=C\C/C=C\C=C\[C@H](CCCC(=O)O)OO,Activity,[4],Substrate
O=NN(CCCl)C(=O)NCCCl [CARMUSTINE],Activity,[5],Substrate
same,Activity,[6],Substrate
Oc1ccc2ccccc2c1 [BETANAPHTHOL],Activity,Sulfotransferase 4A1,Substrate
same,Activity,Sulfotransferase 1A1,Substrate
same,Activity,Sulfotransferase 1A2,Substrate
CCCCCCCCCCCC(=O)O [DODECANOATE],Activity,Cytochrome P450 2E1,Substrate
O=C1NC(=O)C(c2ccccc2)(c2ccccc2)N1 [PHENYTOIN],Activity,[7],indirect activator
same,Activity,[8],indirect activator
same,Activity,Cytochrome P450 2C9,Substrate
same,Activity,Cytochrome P450 2B6,Inducer
"OC1c2c(cc3ccc4cccc5c6ccccc6c2c3c45)C2OC2C1O (configuration not stated) [DIBENZO[A,L]PYRENE DIOL EPOXIDE]",Activity,[9],Substrate
same,Activity,[10],Substrate
same,Activity,[11],Substrate
CN(C)CCCN1c2ccccc2Sc2ccc(Cl)cc21 [CHLORPROMAZINE],Activity,[1],inverse agonist
same,Activity,[2],agonist
NCCc1c[nH]c2ccccc12 [TRYPTAMINE],Activity,Cytochrome P450 2A6,Inhibitor
O=[N+]([O-])c1ccc(Cl)c2nonc12,Activity,[10],Substrate
N[C@@H]1C[C@H]1c1ccccc1.N[C@H]1C[C@@H]1c1ccccc1 [TRANYLCYPROMINE],Activity,Cytochrome P450 2A6,Inhibitor
CC(C)(OO)c1ccccc1 [CUMENE HYDROPEROXIDE],Activity,[10],Substrate
same,Activity,[12],Substrate
same,Activity,[13],Substrate
same,Activity,[3],Substrate
O=S(=O)(O)Cc1ccc2ccccc2c1 [MENAPHTHYL SULFONATE],Activity,[13],Substrate
Nc1ccccc1 [ANILINE],Activity,Cytochrome P450 2E1,Substrate
CC[C@@H]1C(=O)OC[C@@H]1Cc1cncn1C [PILOCARPINE],Activity,Cytochrome P450 2A6,Inhibitor
Clc1ccccc1C(c1ccccc1)(c1ccccc1)n1ccnc1 [CLOTRIMAZOLE],Activity,[2],agonist
C[C@]12CCC(=O)CC1=CC[C@@H]1[C@@H]2CC[C@]2(C)C(=O)CC[C@@H]12,Activity,[9],Substrate
same,Activity,[11],Substrate
